According to patent US11753373B2, “Protease inhibitors as antivirals” (priority 2021, dated 2023):
Where two headings read alike, the source gives them in different places.

How the values were obtained:
[1] = type: in vitro ADME, Human; settings: extraction ratio, compound at 1 uM, human liver microsomes 0.5 mg/mL
Description: (§1) Metabolic stability of novel protease inhibitors was determined via liver microsomal stability assay. Human, mouse, SD rat, beagle dog or monkey liver microsomes were incubated with the test compound for 5 to 60 minutes at 37° C., and then the remaining parent compound was quantified by LC-MS/MS. Percentage of the test compound remaining, half-life (t1/2), in vitro intrinsic clearance (CLint, in vitro), in vivo intrinsic clearance (CLint, in vivo), hepatic clearance (CLh) and extraction ratio (ER) were calculated.
(§2) Procedure: The assay was done as described in Baranczewski, P. et al. (2006) Pharmacological Reports 58:453-472; Pearson, P. and Wienkers, L. (2008) Handbook of Drug Metabolism, 2nd Edition. CRC Pres, P.478; and Venkatesh, P. et al. (2007) Biol. Pharm. Bull. 30:1021-2024. 0.625 mg/mL liver microsomes solution was prepared by mixing 2325 μL 100 mM of K-phosphate buffer (pH 7.4) containing 2.5 mM of MgCl2, 1.25 mM of EDTA, and 75 μL microsomes (20 mg/mL) in a vial for each species.
(§3) Positive control compound: (±) Verapamil hydrochloride (Cat No.: V4629; Lot No.: MKBV4993V; Source: Sigma)
(§4) 40 μL aliquots of the liver microsome/test compound mixture were dispensed into 96-well plate in triplicate and pre-warmed the mixture for 5 minutes at 37° C. Then, 10 μL of 5 mM NADPH solution was added to each well to initiate the reaction, and gently mixed. The samples were incubated at 37° C. with gentle shaking.
(§5) For 0-min samples, 200 μL of ACN containing internal standard was added to 40 μL of liver microsome/test compound mixture, followed by addition of 5 mM NADPH, and mixed gently.
(§6) For negative control: 40 μL of liver microsome/test compound mixture was incubated at 37° C. with gentle shaking for 60 minutes, followed by addition of 200 μL ACN containing 1% FA and internal standard and 10 μL of 5 mM NADPH, mixed gently.
(§7) All samples were centrifuged at 4° C. for 20 minutes at 4,000 rpm. Then, 100 μL of the supernatant from each sample was transferred to a new 96-well plate and 100 μL of ultrapure water containing 1% FA was added to each well, and mixed gently. Samples were analyzed by LC-MS/MS.
(§8) Data Analysis: Peak area ratio (Peak Area of test compound/Peak Area of internal standard) was used to represent the concentration of compound in each sample. The remaining percentage (% Remaining) at appointed time points was calculated versus the concentration of compound at 0 min. The Ln value of the remaining percentage was linearly fitted against the incubation time.
(§9) The half-life and clearance were calculated using the following equations:
(§10) Determined percent of the remaining test compound: % remaining=[area at tx/average areas at t0]×100 (1) % metabolized=[100−% remaining] (2)
(§11) Calculated the half-life (t1/2) using the slope (k) of the log-linear regression from the concentration of remaining parent compound versus time (min) relationship: t1/2 (min)=−ln 2/k. (3)
(§12) Clint, in vitro (mL/min/mg) Clint,in vitro=k/c,(c:Liver microsome concentration in the incubation system) (4)
(§13) Hepatic Clearance (CLh) CLh=Clint,in vivo*Hepatic Blood Flow (mL/min/kg)/(Hepatic Blood Flow (mL/min/kg)+Clint,in vivo) (6)
(§14) Extraction ratio (ER): ER=CLint,in vivo/(Qh+CLint,in vivo)*100,Qh:liver blood flow (7)

[2] = target: SARS-CoV-2 M^pro (3CL protease) (Severe acute respiratory syndrome coronavirus 2 (2019-nCoV) (SARS-CoV-2), UniProt P0DTD1); type: biochemical; settings: read-out: SARS-CoV-2M^pro inhibition IC50
[3] = type: in vitro ADME; settings: extraction ratio, compound at 1 uM; for Liver Microsomal Stability (ER) SD rat: SD rat liver microsomes 0.5 mg/mL; for Liver Microsomal Stability (ER) Beagle dog: beagle dog liver microsomes 0.5 mg/mL; for Liver Microsomal Stability (ER) Monkey: monkey liver microsomes 0.5 mg/mL; for Liver Microsomal Stability (ER) Mouse: mouse liver microsomes 0.5 mg/mL
Description: as §1, §2, §3
as §4, with “shaking. (Final concentrations: compound=1 μM; liver microsomes protein=0.5 mg/mL; MgCl2=2 mM; EDTA=1 mM; ACN=0.1%; DMSO=0.05%).” for “shaking.”
as §5, §6, §7, §8, §9, §10, §11, §12, §13, §14

[4] = wild type Mpro 17 nM, substrate 40 uM

With `CC(C)C[C@H](NC(=O)c1cc2c(F)cccc2[nH]1)C(=O)N[C@@H](C[C@@H]1CCNC1=O)C(=O)CCl` [Compound A-3-d, (2S)—N-[(2S)-4-chloro-3-oxo-1-[(3S)-2-oxopyrrolidin-3-yl]butan-2-yl]-2-[(4-fluoro-1H-indol-2-yl)formamido]-4-methylpentanamide] the “Liver Microsomal Stability (ER) Human” value [1] was 0.84, the IC50 [2] was 335 nM and the “Liver Microsomal Stability (ER) SD rat” value [3] was 0.77. For the same molecule, the “Liver Microsomal Stability (ER) Beagle dog” value [3] was 0.78, the “Liver Microsomal Stability (ER) Monkey” value [3] was 0.72 and the “Liver Microsomal Stability (ER) Mouse” value [3] was 0.58.
In the case of `CC1(C)[C@@H]2[C@@H](C(=O)N[C@H](C#N)C[C@@H]3CCNC3=O)N(C(=O)[C@@H](NC(=O)C(F)(F)F)C3CC3)C[C@@H]21` [Compound D-2-a], the “Liver Microsomal Stability (ER) Human” value [1] is reported as 0.05, the IC50 [2, 4] is reported as 24 nM and the “Liver Microsomal Stability (ER) SD rat” value [3] is reported as 0.03. For the same molecule, the “Liver Microsomal Stability (ER) Beagle dog” value [3] was −0.04 and the “Liver Microsomal Stability (ER) Mouse” value [3] was 0.13.
With `CC1(C)[C@@H]2[C@@H](C(=O)N[C@H](C#N)C[C@@H]3CCNC3=O)N(C(=O)[C@@H](NC(=O)C(F)F)C3CC3)C[C@@H]21` [Compound D-2-d] the “Liver Microsomal Stability (ER) Human” value [1] was 0.03, the IC50 [2, 4] was 58.7 nM and the “Liver Microsomal Stability (ER) SD rat” value [3] was 0.05. The “Liver Microsomal Stability (ER) Beagle dog” value [3] was 0.05 and the “Liver Microsomal Stability (ER) Mouse” value [3] was 0.18.
With `CC(C)C(=O)N[C@H](C(=O)N1C[C@H]2[C@@H]([C@H]1C(=O)N[C@H](C#N)C[C@@H]1CCNC1=O)C2(C)C)C1CC1` [Compound D-2-b] the “Liver Microsomal Stability (ER) Human” value [1] was 0.08, the IC50 [2, 4] was 42.5 nM and the “Liver Microsomal Stability (ER) SD rat” value [3] was 0.00. For the same molecule, the “Liver Microsomal Stability (ER) Beagle dog” value [3] was 0.06 and the “Liver Microsomal Stability (ER) Mouse” value [3] was 0.10.
In the case of `Cc1cccc2[nH]c(C(=O)N[C@@H](CC(C)C)C(=O)N[C@@H](C[C@@H]3CCNC3=O)C(=O)CCl)cc12` [Compound A-4-c, (2S)—N-[(2S)-4-chloro-3-oxo-1-[(3S)-2-oxopyrrolidin-3-yl]butan-2-yl]-4-methyl-2-[(4-methyl-1H-indol-2-yl)formamido]pentanamide], the “Liver Microsomal Stability (ER) Human” value [1] is reported as 0.67, the IC50 [2] is reported as 1120 nM and the “Liver Microsomal Stability (ER) SD rat” value [3] is reported as 0.70. The “Liver Microsomal Stability (ER) Beagle dog” value [3] was 0.72, the “Liver Microsomal Stability (ER) Monkey” value [3] was 0.69 and the “Liver Microsomal Stability (ER) Mouse” value [3] was 0.81.
For `CC(C)C(=O)N[C@H](C(=O)N1C[C@H]2[C@@H]([C@H]1C(=O)N[C@@H](C[C@@H]1CCNC1=O)C(N)=O)C2(C)C)C(C)(C)C` [Compound H-2-b], the “Liver Microsomal Stability (ER) Human” value [1] was 0.18, the IC50 [2, 4] was 6.6 nM and the “Liver Microsomal Stability (ER) SD rat” value [3] was 0.37. For the same molecule, the “Liver Microsomal Stability (ER) Beagle dog” value [3] was 0.06 and the “Liver Microsomal Stability (ER) Mouse” value [3] was 0.37.
For `CC(C)C[C@H](NC(=O)c1cc2ccccc2[nH]1)C(=O)N1C[C@H]2[C@@H]([C@H]1C(=O)N[C@H](C(=O)CCl)C(C)C)C2(C)C` [Compound G-2-c], the “Liver Microsomal Stability (ER) Human” value [1] was 0.85, the IC50 [2, 4] was > 2000 nM and the “Liver Microsomal Stability (ER) SD rat” value [3] was 0.79. The “Liver Microsomal Stability (ER) Beagle dog” value [3] was 0.84 and the “Liver Microsomal Stability (ER) Mouse” value [3] was 0.92.
In the case of `CC(C)C[C@H](NC(=O)C(F)(F)F)C(=O)N1C[C@H]2[C@@H]([C@H]1C(=O)N[C@H](C#N)C[C@@H]1CCNC1=O)C2(C)C` [Compound H-1-c], the “Liver Microsomal Stability (ER) Human” value [1] is reported as 0.15, the IC50 [2, 4] is reported as 36.7 nM and the “Liver Microsomal Stability (ER) SD rat” value [3] is reported as 0.06. The “Liver Microsomal Stability (ER) Beagle dog” value [3] was 0.02 and the “Liver Microsomal Stability (ER) Mouse” value [3] was 0.44.
In the case of `Cc1cccc2[nH]c(C(=O)N[C@@H](CC(C)C)C(=O)N[C@H](C#N)C[C@@H]3CCNC3=O)cc12` [Compound A-4-b], the “Liver Microsomal Stability (ER) Human” value [1] is reported as 0.02, the IC50 [2, 4] is reported as 172 nM and the “Liver Microsomal Stability (ER) SD rat” value [3] is reported as 0.20. The “Liver Microsomal Stability (ER) Beagle dog” value [3] was 0.06, the “Liver Microsomal Stability (ER) Monkey” value [3] was 0.43 and the “Liver Microsomal Stability (ER) Mouse” value [3] was 0.47.
In the case of `COc1cccc2[nH]c(C(=O)N[C@@H](CC(C)C)C(=O)N[C@@H](C[C@@H]3CCNC3=O)C(=O)CCl)cc12` [Compound A-5-c, (2S)—N-[(2S)-4-chloro-3-oxo-1-[(3S)-2-oxopyrrolidin-3-yl]butan-2-yl]-2-[(4-methoxy-1H-indol-2-yl)formamido]-4-methylpentanamide], the “Liver Microsomal Stability (ER) Human” value [1] is reported as 0.89, the IC50 [2] is reported as 359 nM and the “Liver Microsomal Stability (ER) SD rat” value [3] is reported as 0.74. For the same molecule, the “Liver Microsomal Stability (ER) Beagle dog” value [3] was 0.80, the “Liver Microsomal Stability (ER) Monkey” value [3] was 0.79 and the “Liver Microsomal Stability (ER) Mouse” value [3] was 0.84.
In the case of `CC(C)C[C@H](NC(=O)c1cc2ccccc2[nH]1)C(=O)N1C[C@H]2[C@@H]([C@H]1C(=O)N[C@@H](C[C@@H]1CCNC1=O)C(=O)CCl)C2(C)C` [Compound G-1-d, N-[(2S)-1-[(1R,2S,5S)-2-{[(2S)-4-chloro-3-oxo-1-[(3S)-2-oxopyrrolidin-3-yl]butan-2-yl]carbamoyl}-1,5-dihydrogenio-6,6-dimethyl-3-azabicyclo[3.1.0]hexan-3-yl]-4-methyl-1-oxopentan-2-yl]-1H-indole-2-carboxamide], the “Liver Microsomal Stability (ER) Human” value [1] is reported as 0.83, the IC50 [2] is reported as 968 nM and the “Liver Microsomal Stability (ER) SD rat” value [3] is reported as 0.78. For the same molecule, the “Liver Microsomal Stability (ER) Beagle dog” value [3] was 0.81, the “Liver Microsomal Stability (ER) Monkey” value [3] was 0.92 and the “Liver Microsomal Stability (ER) Mouse” value [3] was 0.59.
In the case of `CC1(C)[C@@H]2[C@@H](C(=O)N[C@H](C#N)C[C@@H]3CCCNC3=O)N(C(=O)[C@@H](NC(=O)C(F)F)C3CC3)C[C@@H]21` [Compound D-2-e], the “Liver Microsomal Stability (ER) Human” value [1] is reported as 0.09, the IC50 [2, 4] is reported as 7.02 nM and the “Liver Microsomal Stability (ER) SD rat” value [3] is reported as 0.04. For the same molecule, the “Liver Microsomal Stability (ER) Beagle dog” value [3] was −0.03 and the “Liver Microsomal Stability (ER) Mouse” value [3] was 0.17.
With `CC(C)C[C@H](NC(=O)c1cc2ccccc2[nH]1)C(=O)N1C[C@H]2[C@@H]([C@H]1C(=O)N[C@@H](C#N)C[C@@H]1CCNC1=O)C2(C)C` [Compound G-1-c] the “Liver Microsomal Stability (ER) Human” value [1] was 0.67, the IC50 [2, 4] was 964 nM and the “Liver Microsomal Stability (ER) SD rat” value [3] was 0.30. The “Liver Microsomal Stability (ER) Beagle dog” value [3] was 0.30, the “Liver Microsomal Stability (ER) Monkey” value [3] was 0.58 and the “Liver Microsomal Stability (ER) Mouse” value [3] was 0.27.
For `CC(C)C[C@H](NC(=O)c1cc2ccccc2[nH]1)C(=O)N1C[C@H]2[C@@H]([C@H]1C(=O)N[C@@H](C[C@@H]1CCNC1=O)C(=O)CO)C2(C)C` [Compound G-1-e], the “Liver Microsomal Stability (ER) Human” value [1] was 0.17, the IC50 [2, 4] was 57.9 nM and the “Liver Microsomal Stability (ER) SD rat” value [3] was 0.07. For the same molecule, the “Liver Microsomal Stability (ER) Beagle dog” value [3] was 0.07 and the “Liver Microsomal Stability (ER) Mouse” value [3] was 0.25.
With `CC(C)C[C@H](NC(=O)c1cc2ccccc2[nH]1)C(=O)N1C[C@H]2[C@@H]([C@H]1C(=O)N[C@H](C=O)C(C)(C)C)C2(C)C` [Compound G-3-a] the “Liver Microsomal Stability (ER) Human” value [1] was 0.70, the IC50 [2, 4] was > 10000 nM and the “Liver Microsomal Stability (ER) SD rat” value [3] was 0.54. For the same molecule, the “Liver Microsomal Stability (ER) Beagle dog” value [3] was 0.62 and the “Liver Microsomal Stability (ER) Mouse” value [3] was 0.78.
With `CC(C)C[C@H](NC(=O)C(C)C)C(=O)N1C[C@H]2[C@@H]([C@H]1C(=O)N[C@H](C#N)C[C@@H]1CCNC1=O)C2(C)C` [Compound H-1-e] the “Liver Microsomal Stability (ER) Human” value [1] was 0.05, the IC50 [2, 4] was 43.3 nM and the “Liver Microsomal Stability (ER) SD rat” value [3] was 0.06. For the same molecule, the “Liver Microsomal Stability (ER) Beagle dog” value [3] was 0.05 and the “Liver Microsomal Stability (ER) Mouse” value [3] was 0.31.
